Assay results reported in ChEMBL document CHEMBL1141432, “Mono- and Di-sesquiterpenoids from Chloranthus spicatus” (2007).
≈ marks a conversion by molar mass, not a printed value.

What was measured:
Candida parapsilosis = experiment: Antifungal activity against Candida parapsilosis by NCCLS M27-A method; format: functional; conditions: Lodderomyces parapsilosis
Candida albicans = experiment: Antifungal activity against Candida albicans by NCCLS M27-A method; format: functional

| Structure (SMILES) | MIC (Candida parapsilosis) [µM] | MIC (Candida albicans) [µM] |
| --- | --- | --- |
| CC1=C2C3=C4[C@](C)([C@@H]5C[C@@H]5[C@@]4(O)C[C@@H]4[C@]35OC(=O)C3=C5C[C@H]5[C@](O)(COC(=O)/C(C)=C/COC(=O)CCC(=O)OC3)[C@H]3C[C@H]3[C@]45C)[C@@H](O)[C@@]2(O)OC1=O [CHLORAMULTILIDE C] | > 0.157 | > 0.157 |
| C/C=C(\C)C(=O)OC[C@]1(O)[C@H]2C[C@H]2[C@]2(C)[C@@H]3C[C@@]4(O)C5=C(C6=C(C)C(=O)O[C@]6(O)[C@H](O)[C@@]5(C)[C@@H]5C[C@@H]54)[C@@]34OC(=O)C(CO)=C4C[C@@H]12 [CHLORAMULTILIDE D] | > 0.157 | > 0.157 |
| CC1=C2C3=C4[C@@](C)(C(=O)[C@@]2(O)OC1=O)[C@@H]1C[C@@H]1[C@@]4(O)C[C@@H]1[C@]32OC(=O)C3=C2C[C@H]2[C@](O)(COC(=O)/C=C(\C)COC(=O)CCC(=O)OC3)[C@H]3C[C@@H]3[C@]12C [CHLORAHOLOLIDE B] | > 0.157 | > 0.157 |
| CC1=C2C3=C4[C@](C)([C@@H]5C[C@@H]5[C@@]4(O)C[C@@H]4[C@]35OC(=O)C3=C5C[C@H]5[C@](O)(COC(=O)/C=C(\C)COC(=O)CCC(=O)OC3)[C@H]3C[C@@H]3[C@]45C)[C@@H](O)[C@@]2(O)OC1=O [CHLORAMULTILIDE B] | 0.068 (≈ 0.05 µg/mL) | 0.068 (≈ 0.05 µg/mL) |
